Assay [1] has as its target T1, ornithine 4,5-aminomutase (OAM) (Acetoanaerobium sticklandii, UniProt E3PY95).
T1 construct: gene oraE; recombinant, expressed from pET-OAMH2 vector and purified; holoenzyme with PLP and AdoCbl; Glu338 (TIM barrel) and Lys629 lie in OraE
T1 sequence (E3PY95 1-740): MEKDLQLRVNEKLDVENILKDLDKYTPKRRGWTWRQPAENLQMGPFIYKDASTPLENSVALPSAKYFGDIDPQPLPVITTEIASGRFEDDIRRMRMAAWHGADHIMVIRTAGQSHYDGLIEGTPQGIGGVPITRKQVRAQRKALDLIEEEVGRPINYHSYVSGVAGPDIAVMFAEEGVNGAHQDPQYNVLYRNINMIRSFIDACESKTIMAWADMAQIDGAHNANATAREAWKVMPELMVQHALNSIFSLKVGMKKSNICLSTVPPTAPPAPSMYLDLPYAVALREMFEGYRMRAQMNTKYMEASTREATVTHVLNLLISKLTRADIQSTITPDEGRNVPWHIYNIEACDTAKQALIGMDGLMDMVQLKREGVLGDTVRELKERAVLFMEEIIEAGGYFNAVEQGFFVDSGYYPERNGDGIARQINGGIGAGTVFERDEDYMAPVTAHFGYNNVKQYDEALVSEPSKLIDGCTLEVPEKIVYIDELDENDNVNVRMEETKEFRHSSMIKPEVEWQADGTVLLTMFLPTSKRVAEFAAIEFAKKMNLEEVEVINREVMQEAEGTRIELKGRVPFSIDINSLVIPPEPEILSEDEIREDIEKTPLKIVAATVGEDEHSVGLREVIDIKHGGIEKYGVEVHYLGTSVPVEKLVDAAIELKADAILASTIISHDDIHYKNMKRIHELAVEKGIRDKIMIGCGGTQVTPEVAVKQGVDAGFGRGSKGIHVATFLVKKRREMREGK
T1 sequence (E3PY96 1-121 partner): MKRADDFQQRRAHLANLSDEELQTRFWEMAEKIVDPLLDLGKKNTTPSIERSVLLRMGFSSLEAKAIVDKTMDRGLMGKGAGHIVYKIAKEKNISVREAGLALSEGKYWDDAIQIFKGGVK
In words: anaerobic coupled DAPDH assay, NADH at […] nm. The class given is biochemical. Particulars: read-out: Ki(DAB).

The target of assay [2] is T2, ornithine 4,5-aminomutase (OAM) (Acetoanaerobium sticklandii, UniProt E3PY95, E335A).
T2 construct: gene oraE
The assay is described as follows: biochemical.

Assay [3] deals with T3, ornithine 4,5-aminomutase (OAM) (Acetoanaerobium sticklandii, UniProt E3PY95, E335D).
T3 construct: gene oraE
The assay is described as follows: biochemical.

Assay [4] deals with T4, ornithine 4,5-aminomutase (OAM) (Acetoanaerobium sticklandii, UniProt E3PY95, E335Q).
T4 construct: gene oraE
The assay is described as follows: biochemical.

SMILES strings stand for the structures.

In general, Ki refers to the dissociation constant of the complex between target and ligand, obtained from inhibition or displacement.

Turning to `NCCC(N)C(=O)O` (racemic) [D,L-2,4-diaminobutyric acid], the Ki in assay [1] amounted to 5.2 ± 0.1 µM; in assay [2], 18.8 ± 2.2 µM; in assay [3], 15.2 ± 1.5 µM; in assay [4] it was 11.2 ± 0.1 µM.

(Values after PMC4413051, “Glutamate 338 is an electrostatic facilitator of C–Co bond breakage in a dynamic/electrostatic model of catalysis by ornithine aminomutase” (The Febs Journal, 2015).)
